Reference: patent US11136296B2, “Substituted N-arylethyl-2-arylquinoline-4-carboxamides and use thereof” (Bayer Aktiengesellschaft, priority 2017, dated 2021)

Target: FP receptor (Homo sapiens (Human), UniProt P43088)
Assay: In vitro test of inhibition of human FP receptor activity (PGF2α-induced calcium flux in FP-expressing CHEM1 cells)
Assay type: cell-based
Details: PGF2α-induced (2 nM) calcium flux in FP-expressing CHEM1 cells; some as mean values from multiple determinations
Source text: Table 1 below lists the IC50 values from this assay for individual working examples of the invention (some as mean values from multiple independent individual determinations): […]

Sequence of FP receptor (P43088 whole entry): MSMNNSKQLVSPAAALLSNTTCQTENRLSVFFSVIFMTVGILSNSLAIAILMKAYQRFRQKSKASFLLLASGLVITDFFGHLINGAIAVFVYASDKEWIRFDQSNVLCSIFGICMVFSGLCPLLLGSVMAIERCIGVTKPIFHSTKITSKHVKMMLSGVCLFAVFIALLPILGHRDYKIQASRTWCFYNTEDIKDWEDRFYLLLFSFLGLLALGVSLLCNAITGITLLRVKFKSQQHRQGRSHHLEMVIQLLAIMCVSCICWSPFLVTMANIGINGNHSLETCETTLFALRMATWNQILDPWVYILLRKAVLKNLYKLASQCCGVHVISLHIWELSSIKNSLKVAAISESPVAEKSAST

| Structure (SMILES) | IC50 |
| --- | --- |
| Cc1c(-c2ccccc2)nc2ccc(Br)cc2c1C(=O)NC(C)C(CC(=O)O)c1ccccc1Cl (racemic) [Example 148, (+/−)-4-{[(6-Bromo-3-methyl-2-phenylquinolin-4-yl)carbonyl]amino}-3-(2-chlorophenyl)pentanoic Acid] | 42 nM |
| Cc1c(-c2ccccc2)nc2ccc(Br)cc2c1C(=O)NCC(CCC(=O)O)c1ccccc1Cl (racemic) [Example 151, (+/−)-5-{[(6-Bromo-3-methyl-2-phenylquinolin-4-yl)carbonyl]amino}-4-(2-chlorophenyl)pentanoic Acid] | 7.8 nM |
| Cc1c(-c2ccccc2)nc2ccc(Br)cc2c1C(=O)NCC(C)(CCC(=O)O)c1ccccc1Cl (racemic) [Example 154, (+/−)-5-{[(6-Bromo-3-methyl-2-phenylquinolin-4-yl)carbonyl]amino}-4-(2-chlorophenyl)-4-methylpentanoic Acid] | 15 nM |
| Cc1c(-c2ccccc2)nc2ccc(Br)cc2c1C(=O)NCC(CCC(=O)O)c1c(F)cccc1Cl (racemic) [Example 157, (+/−)-5-{[(6-Bromo-3-methyl-2-phenylquinolin-4-yl)carbonyl]amino}-4-(2-chloro-6-fluorophenyl)pentanoic Acid] | 3.7 nM |
| Cc1ccccc1C(CCC(=O)O)CNC(=O)c1c(C)c(-c2ccccc2)nc2ccc(Br)cc12 (racemic) [Example 160, (+/−)-5-{[(6-Bromo-3-methyl-2-phenylquinolin-4-yl)carbonyl]amino}-4-(2-methylphenyl)pentanoic Acid] | 13 nM |
| Cc1c(-c2ccccc2)nc2ccc(Br)cc2c1C(=O)NCC(CCC(=O)O)c1cc(F)ccc1Cl (racemic) [Example 163, (+/−)-5-{[(6-Bromo-3-methyl-2-phenylquinolin-4-yl)carbonyl]amino}-4-(2-chloro-5-fluorophenyl)pentanoic Acid] | 8.7 nM |
| COc1ccccc1C(CCC(=O)O)CNC(=O)c1c(C)c(-c2ccccc2)nc2ccc(Br)cc12 (racemic) [Example 166, (+/−)-5-{[(6-Bromo-3-methyl-2-phenylquinolin-4-yl)carbonyl]amino}-4-(2-methoxyphenyl)pentanoic Acid] | 6.1 nM |
| Cc1c(-c2ccccc2)nc2ccc(Br)cc2c1C(=O)NCC(C)(CCC(=O)O)c1cc(F)ccc1Cl (racemic) [Example 169, (+/−)-5-{[(6-Bromo-3-methyl-2-phenylquinolin-4-yl)carbonyl]amino}-4-(2-chloro-5-fluorophenyl)-4-methylpentanoic Acid] | 26 nM |
| Cc1c(-c2ccccc2)nc2ccc(Br)cc2c1C(=O)NCC(CCC(=O)O)c1ccccc1F (racemic) [Example 175, (+/−)-5-{[(6-Bromo-3-methyl-2-phenylquinolin-4-yl)carbonyl]amino}-4-(2-fluorophenyl)pentanoic Acid] | 15 nM |
| Cc1c(-c2ccccc2)nc2ccc(Br)cc2c1C(=O)NCC(CCC(=O)O)c1ccccc1OC(F)F (racemic) [Example 178, (+/−)-5-{[(6-Bromo-3-methyl-2-phenylquinolin-4-yl)carbonyl]amino}-4-[2-(difluoromethoxy)phenyl]pentanoic Acid] | 6.5 nM |
| Cc1c(-c2ccccc2)nc2ccc(Br)cc2c1C(=O)NCC(CCC(=O)O)c1c(F)cccc1F (racemic) [Example 181, (+/−)-5-{[(6-Bromo-3-methyl-2-phenylquinolin-4-yl)carbonyl]amino}-4-(2,6-difluorophenyl)pentanoic Acid] | 9.2 nM |
| Cc1c(-c2ccccc2)nc2ccc(Br)cc2c1C(=O)NCC(CCC(=O)O)c1cccc(F)c1Cl (racemic) [Example 184, (+/−)-5-{[(6-Bromo-3-methyl-2-phenylquinolin-4-yl)carbonyl]amino}-4-(2-chloro-3-fluorophenyl)pentanoic Acid] | 7.7 nM |
| Cc1c(-c2ccccc2)nc2ccc(Br)cc2c1C(=O)NCC(c1ccccc1Cl)N(C)CC(=O)O (racemic) [Example 187, (+/−)-N-[2-{[(6-Bromo-3-methyl-2-phenylquinolin-4-yl)carbonyl]amino}-1-(2-chlorophenyl)ethyl]-N-methylglycine] | 36 nM |
| Cc1c(-c2ccccc2)nc2ccc(Br)cc2c1C(=O)NCC(NCC(=O)O)c1ccccc1Cl (racemic) [Example 190, (+/−)-N-[2-{[(6-Bromo-3-methyl-2-phenylquinolin-4-yl)carbonyl]amino}-1-(2-chlorophenyl)ethyl]glycine] | 67 nM |
| Cc1c(-c2ccccc2)nc2ccc(Br)cc2c1C(=O)NCC(OCC(=O)O)c1ccccc1Cl (racemic) [Example 191, (+/−)-[2-{[(6-Bromo-3-methyl-2-phenylquinolin-4-yl)carbonyl]amino}-1-(2-chlorophenyl)ethoxy]acetic Acid] | 100 nM |
| Cc1c(-c2ccccc2)nc2ccc(Br)cc2c1C(=O)NCC(SCC(=O)O)c1ccccc1Cl (racemic) [Example 194, (+/−)-{[2-{[(6-Bromo-3-methyl-2-phenylquinolin-4-yl)carbonyl]amino}-1-(2-chlorophenyl)ethyl]sulfanyl}acetic Acid] | 7.9 nM |

| Structure (SMILES) | IC50 |
| --- | --- |
| Cc1c(-c2ccccc2)nc2ccc(Br)cc2c1C(=O)NCC(c1ccccc1Cl)S(=O)(=O)CC(=O)O (racemic) [Example 197, (+/−)-{[2-{[(6-Bromo-3-methyl-2-phenylquinolin-4-yl)carbonyl]amino}-1-(2-chlorophenyl)ethyl]sulfonyl}acetic Acid] | 21 nM |
| Cc1c(-c2ccccc2)nc2ccc(Br)cc2c1C(=O)NCC(CCC(=O)O)c1c(Cl)ccc(F)c1F (racemic) [Example 200, (+/−)-5-{[(6-Bromo-3-methyl-2-phenylquinolin-4-yl)carbonyl]amino}-4-(6-chloro-2,3-difluorophenyl)pentanoic Acid] | 3.6 nM |
| Cc1c(-c2ccccc2)nc2ccc(Br)cc2c1C(=O)NCC(CCC(=O)O)c1ccccc1C(F)(F)F (racemic) [Example 203, (+/−)-5-{[(6-Bromo-3-methyl-2-phenylquinolin-4-yl)carbonyl]amino}-4-[2-(trifluoromethyl)phenyl]pentanoic Acid] | 7.6 nM |
| Cc1ccc(F)cc1C(CCC(=O)O)CNC(=O)c1c(C)c(-c2ccccc2)nc2ccc(Br)cc12 (racemic) [Example 206, (+/−)-5-{[(6-Bromo-3-methyl-2-phenylquinolin-4-yl)carbonyl]amino}-4-(5-fluoro-2-methylphenyl)pentanoic Acid] | 13 nM |
| Cc1c(-c2ccccc2)nc2ccc(Br)cc2c1C(=O)NCC(CCC(=O)O)c1ccccc1OC(F)(F)F (racemic) [Example 209, (+/−)-5-{[(6-Bromo-3-methyl-2-phenylquinolin-4-yl)carbonyl]amino}-4-[2-(trifluoromethoxy)phenyl]pentanoic Acid] | 1.8 nM |
| O=C(O)CCC(CNC(=O)c1c(Cl)c(-c2ccccc2)nc2ccc(Br)cc12)c1ccccc1Cl (racemic) [Example 212, (+/−)-5-{[(6-Bromo-3-chloro-2-phenylquinolin-4-yl)carbonyl]amino}-4-(2-chlorophenyl)pentanoic Acid] | 6.6 nM |
| O=C(O)CCC(CNC(=O)c1c(Cl)c(-c2ccccc2)nc2ccc(Br)cc12)c1ccccc1C(F)(F)F (racemic) [Example 215, (+/−)-5-{[(6-Bromo-3-chloro-2-phenylquinolin-4-yl)carbonyl]amino}-4-[2-(trifluoromethyl)phenyl]pentanoic Acid] | 5.4 nM |
| C#Cc1ccc2nc(-c3ccccc3)c(C)c(C(=O)NCC(CCC(=O)O)c3ccccc3Cl)c2c1 (racemic) [Example 218, (+/−)-4-(2-Chlorophenyl)-5-{[(6-ethynyl-3-methyl-2-phenylquinolin-4-yl)carbonyl]amino}pentanoic Acid] | 13 nM |
| O=C(O)CCC(CNC(=O)c1c(Cl)c(-c2ccccc2)nc2ccc(Br)cc12)c1c(F)ccc(F)c1Cl (racemic) [Example 221, (+/−)-5-{[(6-Bromo-3-chloro-2-phenylquinolin-4-yl)carbonyl]amino}-4-(2-chloro-3,6-difluorophenyl)pentanoic Acid] | 2.4 nM |
| Cc1c(-c2ccccc2)nc2ccc(Br)cc2c1C(=O)NCC(CCC(=O)O)c1ccccn1 (racemic) [Example 224, (+/−)-5-{[(6-Bromo-3-methyl-2-phenylquinolin-4-yl)carbonyl]amino}-4-(pyridin-2-yl)pentanoic Acid] | 100 nM |
| Cc1c(-c2ccccc2)nc2ccc(Br)cc2c1C(=O)NCC(CCC(=O)O)c1c(F)cccc1C(F)(F)F (racemic) [Example 225, (+/−)-5-{[(6-Bromo-3-methyl-2-phenylquinolin-4-yl)carbonyl]amino}-4-[2-fluoro-6-(trifluoromethyl)phenyl]pentanoic Acid] | 4.7 nM |
| Cc1c(-c2ccccc2)nc2ccc(Br)cc2c1C(=O)NCC(CCC(=O)O)c1c(F)c(F)cc(F)c1F (racemic) [Example 228, (+/−)-5-{[(6-Bromo-3-methyl-2-phenylquinolin-4-yl)carbonyl]amino}-4-(2,3,5,6-tetrafluorophenyl)pentanoic Acid] | 4.2 nM |
| Cc1c(-c2ccccc2)nc2ccc(Br)cc2c1C(=O)NCC(CCC(=O)O)c1cc(F)cc(F)c1F (racemic) [Example 231, (+/−)-5-{[(6-Bromo-3-methyl-2-phenylquinolin-4-yl)carbonyl]amino}-4-(2,3,5-trifluorophenyl)pentanoic Acid] | 22 nM |
| Cc1c(-c2ccccc2)nc2ccc(Br)cc2c1C(=O)NCC(CCC(=O)O)c1c(Cl)ccc(Cl)c1Cl (racemic) [Example 234, (+/−)-5-{[(6-Bromo-3-methyl-2-phenylquinolin-4-yl)carbonyl]amino}-4-(2,3,6-trichlorophenyl)pentanoic Acid] | 7.2 nM |
| Cc1c(-c2ccccc2)nc2ccc(Br)cc2c1C(=O)NCC(C)(CCCC(=O)O)c1ccccc1Cl (racemic) [Example 240, (+/−)-6-{[(6-Bromo-3-methyl-2-phenylquinolin-4-yl)carbonyl]amino}-5-(2-chlorophenyl)-5-methylhexanoic Acid] | 24 nM |
| Cc1c(-c2ccccc2)nc2ccc(Br)cc2c1C(=O)NCC(C)(CCCC(=O)O)c1ccccc1 (racemic) [Example 243, (+/−)-6-{[(6-Bromo-3-methyl-2-phenylquinolin-4-yl)carbonyl]amino}-5-methyl-5-phenylhexanoic Acid] | 31 nM |
